Experimental data reported in patent US20160074420A1, “ORAL B12 THERAPY” (Emisphere Technologies, Inc., priority 2010, published 2016).

Experiments:
[1] = Vitamin B12 absorption after dosing Sprague-Dawley rats (plasma vitamin B12 by RIA); type: in vivo; settings: for AUC / Cmax / Tmax: male Sprague-Dawley rats, mean, N = 5
Method: (1) 8.8 mg of vitamin B12, 35 mg of SNAC were weighed, thoroughly mixed and made into a tablet for dosing in rats; (2) 8.8 mg of vitamin B12, 35 mg of SNAC and 5 mg of capmul PG-8 (propylene glycol monocaprylate) were weighed, thoroughly mixed and made into a tablet; (3) 8.8 mg of vitamin B12, 35 mg of SNAC and 0.9 mg of povidone were weighed, thoroughly mixed and made into a tablet. Each of the […] processes was repeated to produce more tablets.
Male Sprague-Dawley rats (325-350 g) were dosed with vitamin B12 intravenously (0.5 mg/kg) alone, or orally with the tablets made in Example 4 at a dose of 50 mg/kg, vitamin B12 alone or in combination with SNAC at 200 mg/kg. Blood samples were collected at 0, 3, 10, 20, 30, 60, 120, 240 and 360 minutes post dosing. Plasma samples were analyzed for vitamin B12 by RIA. The model independent pharmacokinetic (PK) metrics obtained following administration of the vitamin B12/SNAC combination were compared to those obtained following administration of vitamin B12 alone.

[2] = Open label randomized study: serum cobalamin (B12) levels in subjects with mild vitamin B12 deficiency; type: in vivo, human; settings: for Cobalamin Responder (%): number of subjects (%) with cobalamin >=350 pg/mL; for Cobalamin Responder (%) / Cobalamin Non-responder (%): ITT; for Cobalamin Non-responder (%): number of subjects (%); for mean (SD) percent change in cobalamin levels: serum
Method: In this study, the efficacy and safety of the oral vitamin B12 formulation (1 mg) of the present invention and intramuscular (IM) cyanocobalamin (1 mg) were evaluated in subjects with mild vitamin B12 deficiency.
(§1) This was an open-label, randomized 60-day study, with a 30-day extension, conducted in B12 deficient subjects. Subjects were assigned to a treatment according to a randomization schedule prepared by a statistician at the start of the study. The randomization scheme was stratified such that a balanced number of males and females were assigned to each treatment group. Subjects were randomized to receive either a 1000 μg oral tablet, administered once daily for 90 days or 1000 μg cyanocobalamin, administered IM on Days 1, 3, 7, 10, 14, 21, 30, 60 and 90.
(§2) A single tablet was self-administered in the fasted state and at least one hour prior to the morning meal with 50 mL water. IM study drug administration was performed by study personnel, in the research clinic, in the morning, in the fasted state and at least 1 hour prior to the morning meal on study Days 1, 3, 7, 10, 14, 21, 30, 60 and 90. For subjects assigned to receive tablets, treatment compliance was based on subject diary entries. Blood samples for pharmacodynamic assessments (efficacy variables) were collected from all subjects at baseline prior to dosing (Day 1), and on Days 15, 31, 61 and 91. Sample collection was carried out approximately 24 hours after the last dose administration, prior to that day's dose administration, and in the fasting state.
(§3) Serum cobalamin (B12) levels were determined by a validated microparticle enzyme immunoassay (MEIA) detection method with a calibration range of 100-2000 pg/mL. Sample dilution procedures were validated up to 4-fold dilution. Serum MMA levels were determined by a validated LC/MS/MS method with a calibration range of 5-200 ng/mL. Plasma HC levels were determined by a validated fluorescence polarization immunoassay (FIPA) detection method with a calibration range of 2.5-50 μmol/L; and plasma holotranscobalamin (active B12) levels were determined using a validated MEIA method, with a calibration range of 8-128 pmol/L. Sample dilution procedures were validated up to 32-fold dilution.
(§4) The primary efficacy variable was serum cobalamin levels on Day 61. The primary efficacy outcome compared the proportion of subjects in each treatment group whose cobalamin levels were normalized (≧350 pg/mL) on Day 61. The secondary efficacy variables were serum cobalamin levels on Day 91, serum MMA levels on Day 61 and Day 91 and, plasma total HC levels on Day 61 and Day 91.
(§5) The secondary efficacy outcomes were: comparison of the proportion of subjects in each treatment group whose cobalamin levels were normalized (≧350 pg/mL) on Day 91; comparison of the mean percent change from baseline in serum cobalamin levels among subjects in each treatment group on Day 61 and Day 91; comparison of the mean percent change from baseline in serum MMA levels among subjects in each treatment group on Day 61 and Day 91; comparison of the mean percent change from baseline in total plasma HC among subjects in each treatment group on Day 61 and Day 91; comparison of the mean first time to normalization of serum cobalamin (≧350 pg/mL) among subjects in each treatment group on Day 61 and Day 91. Exploratory efficacy variables and outcomes were: plasma holotranscobalamin levels on Day 61 and Day 91, measured by: comparison of the proportion of subjects in each treatment group whose holotranscobalamin levels were normalized (≧40 pmol/L) on Day 61 and Day 91; the relationship between cobalamin and holotranscobalamin levels on Day 61 and Day 91.
The analysis of the primary efficacy outcome compared the proportion of subjects in each treatment group whose cobalamin levels were normalized (i.e., cobalamin ≧350 pg/mL) on Day 61 Visit. The number and frequency of normalized subjects was calculated. […]

[3] = Open label randomized study: plasma holotranscobalamin (active B12) levels; type: in vivo, human; settings: for Holotranscobalamin Responder (%): number of subjects (%) with holotranscobalamin >=40 pmol/L; for Holotranscobalamin Responder (%) / Holotranscobalamin Non-responder (%): ITT; for Holotranscobalamin Non-responder (%): number of subjects (%)
Method: as §1, §2, §3, §5
The proportion of subjects who achieved normalization of holotranscobalamin levels (≧40 pmol/L) at Day 61 and Day 91 were analyzed using the same methodology as given for the primary analysis. The relationship between cobalamin and holotranscobalamin levels at Day 61 and Day 91, and the PCFB to Day 61 and Day 91 were explored. The relationship was analyzed graphically.

[4] = test system: methylmalonic acid (MMA); test: Open label randomized study: serum MMA levels; type: in vivo, human; settings: for mean (SD) percent change in MMA levels: serum
Method: as §1, §2, §3, §4, §5
(§6) Change from baseline (CFB) is defined as (X−B). Percent change from baseline (PCFB) is defined as PCFB=100(X−B)/B, where B is the baseline (pre-dose Day 1) measurement and X is the measurement at Day 61 or Day 91, as required.
(§7) The proportion of subjects who achieved normalization of cobalamin levels (i.e., cobalamin ≧350 pg/mL) at Day 91 was to be analyzed using the same methodology as given above for the primary analysis (i.e., Day 61). […]

[5] = test system: homocysteine (HC); test: Open label randomized study: plasma HC levels; type: in vivo, human; settings: for mean (SD) percent change in HC levels: plasma
Method: as §1, §2, §3, §4, §5, §6, §7

[6] = Open label randomized study: safety assessments (adverse events); type: in vivo, human; settings: 90-day study
Method: Safety assessments consisted of monitoring adverse events (AEs), hematology, chemistry and urinalysis laboratory test results, concomitant medications, vital sign assessments, ECG and physical examination findings.
A resting 12-lead ECG was recorded at screening and at the End-of-Study visit prior to discharge from the study. The ECG parameters recorded included ventricular rate (bpm), PR interval (msec), QRS duration (msec), QT interval (msec), QTc interval (msec, Bazett's correction). A physical examination was performed at screening and at the End-of-Study visit prior to discharge from the study.
The safety population included all randomized subjects who received at least one administration of study product and who had at least one subsequent safety assessment. Subjects are included in this group based on the actual treatment received. All safety analyses were performed on the safety population.

[7] = cited from earlier work
[8] = 50 mg/kg vitamin B12 PO (tablet)
[9] = Day 1 (baseline prior to dosing)

Vitamin B12 showed an AUC ([1]; 0.5 mg/kg IV) of 65.84 µg·min/mL, a Cmax ([1]; 0.5 mg/kg IV) of 2150 ng/mL and a Tmax ([1]; 0.5 mg/kg IV) of 4.4 min. The AUC [1, 8] was 28.72 µg·min/mL, the Cmax [1, 8] was 140 ng/mL and the Tmax [1, 8] was 52 min. The “Mean Bioavailability” value ([1]; 50 mg/kg vitamin B12 PO versus 0.5 mg/kg IV, rats) was 0.42%.

In the case of cyanocobalamin [IM B12], the “Total B12, Mean” value [2, 9] is reported as 369 pg/mL, the “Total B12, Mean” value ([2]; Day 15) is reported as 2434 pg/mL and the “Cobalamin Responder (%)” value ([2]; Day 15) is reported as 26 (100.0) %. The “Cobalamin Non-responder (%)” value ([2]; Day 15) was 0 (0.0) %, the “Total B12, Mean” value ([2]; Day 61) was 2258 pg/mL and the “mean (SD) percent change in cobalamin levels” value ([2]; Day 61, change from baseline) was 714.6 (732.11) percent. The “Cobalamin Responder (%)” value ([2]; Day 61) was 26 (100.0) %, the “Cobalamin Non-responder (%)” value ([2]; Day 61) was 0 (0.0) % and the “Total B12, Mean” value ([2]; Day 91) was 2057 ± 935 pg/mL. For the same substance, the “mean (SD) percent change in cobalamin levels” value ([2]; Day 91, change from baseline) was 608.9 (446.68) percent, the “Total B12, Mean” value ([2]; Day 91, listed as IM Treatment Group) was 2057 pg/mL and the “Cobalamin Responder (%)” value ([2]; Day 91) was 26 (100.0) %. For the same substance, the “Cobalamin Non-responder (%)” value ([2]; Day 91) was 0 (0.0) %, the “HTC, Mean” value [3, 9] was 34.32 pmol/L and the “HTC, Mean” value ([3]; Day 15) was 899 pmol/L. The “Holotranscobalamin Responder (%)” value ([3]; Day 15) was 26 (100.0) %, the “Holotranscobalamin Non-responder (%)” value ([3]; Day 15) was 0 (0.0) % and the “HTC, Mean” value ([3]; Day 61) was 739 pmol/L. For the same substance, the “Holotranscobalamin Responder (%)” value ([3]; Day 61) was 26 (100.0) %, the “Holotranscobalamin Non-responder (%)” value ([3]; Day 61) was 0 (0.0) % and the “HTC, Mean” value ([3]; Day 91) was 877 pmol/L. For the same substance, the “Holotranscobalamin Responder (%)” value ([3]; Day 91) was 26 (100.0) %, the “Holotranscobalamin Non-responder (%)” value ([3]; Day 91) was 0 (0.0) % and the “MMA, Mean” value [4, 9] was 232 nmol/L. The “MMA, Mean” value ([4]; Day 15) was 128 nmol/L, the “MMA, Mean” value ([4]; Day 61) was 148 nmol/L and the “mean (SD) percent change in MMA levels” value ([4]; Day 61, change from baseline) was −28.17 (24.754) percent. For the same substance, the “MMA, Mean” value ([4]; Day 91) was 149 nmol/L, the “mean (SD) percent change in MMA levels” value ([4]; Day 91, change from baseline) was −26.58 (25.643) percent and the “Homocysteine, Mean” value [5, 9] was 13 µmol/L. For the same substance, the “Homocysteine, Mean” value ([5]; Day 15) was 10 µmol/L, the “Homocysteine, Mean” value ([5]; Day 61) was 11 µmol/L and the “mean (SD) percent change in HC levels” value ([5]; Day 61, change from baseline) was −17.49 (24.099) percent. For the same substance, the “Homocysteine, Mean” value ([5]; Day 91) was 12 µmol/L, the “mean (SD) percent change in HC levels” value ([5]; Day 91, change from baseline) was −8.805 (28.5406) percent and the “subjects reported at least one AE” value [6] was 57.7%. The “subjects reported serious adverse events (SAEs)” value [6] was 11.5%, the “Subjects who discontinued because of an AE” value ([6]; safety population) was 0 (0)^ n (%) and the “Subjects with AEs” value ([6]; safety population) was 15 (57.7) n (%). For the same substance, the “Subjects with SAEs” value ([6]; safety population) was 3 (11.5) n (%) and the “Subjects with TEAEs” value ([6]; safety population) was 15 (57.7) n (%).

In the case of cyanocobalamin [Oral cyanocobalamin], the “B12 levels increased by a mean value” ([7]; 1000 μg/day oral, 1 week, in 17 of 20 elderly patients (Kaltenbach et al.)) is listed as 0.23 µg/L, the “patients normalized (serum B12 levels)” value ([7]; 2.5 year study (Andres et al.)) is listed as 95% and the “patients achieved normal serum B12 levels” value ([7]; 3 month studies (Andres et al.)) is listed as 80-90%. For the same substance, the “patients with clinical improvements” value ([7]; Andres et al.) was 20-30%.
